Laboratory results published in patent publication US6770782B1, “Process for the production of potassium hydroxy citric acid, and compositions containing the potassium hydroxy citric acid” (Sabinsa Corporation, priority 1995, dated 2004).
“Also recorded” adds a separate entry of the source.

Assays:
citrate lyase = target: T1, citrate lyase (Homo sapiens, UniProt P53396); conditions: cited from earlier work
T1 sequence (P53396 1-1101): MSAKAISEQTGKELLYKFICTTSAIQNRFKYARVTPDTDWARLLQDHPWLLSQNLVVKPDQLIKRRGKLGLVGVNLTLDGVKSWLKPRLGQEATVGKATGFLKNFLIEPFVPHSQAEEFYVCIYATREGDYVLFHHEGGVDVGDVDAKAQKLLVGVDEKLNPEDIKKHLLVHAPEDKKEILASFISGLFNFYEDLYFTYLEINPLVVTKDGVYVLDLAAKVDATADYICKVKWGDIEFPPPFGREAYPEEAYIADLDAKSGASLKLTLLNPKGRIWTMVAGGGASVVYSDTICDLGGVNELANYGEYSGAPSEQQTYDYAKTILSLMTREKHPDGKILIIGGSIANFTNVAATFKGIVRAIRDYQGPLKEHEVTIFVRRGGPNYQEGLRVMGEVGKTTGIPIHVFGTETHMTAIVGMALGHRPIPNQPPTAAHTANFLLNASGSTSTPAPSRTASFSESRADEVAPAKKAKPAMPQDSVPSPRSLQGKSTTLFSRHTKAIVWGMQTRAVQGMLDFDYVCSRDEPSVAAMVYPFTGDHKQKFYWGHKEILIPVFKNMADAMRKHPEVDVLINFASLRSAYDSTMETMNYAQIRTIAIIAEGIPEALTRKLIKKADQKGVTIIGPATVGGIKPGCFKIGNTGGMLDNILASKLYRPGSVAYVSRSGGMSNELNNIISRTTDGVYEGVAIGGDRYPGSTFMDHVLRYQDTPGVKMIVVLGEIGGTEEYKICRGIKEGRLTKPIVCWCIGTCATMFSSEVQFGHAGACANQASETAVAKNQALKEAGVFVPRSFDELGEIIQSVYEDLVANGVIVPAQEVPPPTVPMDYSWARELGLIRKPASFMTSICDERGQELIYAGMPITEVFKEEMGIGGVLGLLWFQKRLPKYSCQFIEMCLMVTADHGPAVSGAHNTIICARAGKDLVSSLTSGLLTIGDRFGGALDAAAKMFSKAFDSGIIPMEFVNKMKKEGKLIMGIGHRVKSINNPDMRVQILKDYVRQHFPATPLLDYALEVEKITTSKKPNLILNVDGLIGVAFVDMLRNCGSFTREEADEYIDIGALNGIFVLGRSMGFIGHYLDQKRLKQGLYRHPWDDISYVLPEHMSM

[1] = free acid converts to lactone; cited from earlier work
[2] = in vivo; cited from earlier work
[3] = rats, cited from earlier work
[4] = system: gluconeogenesis in rat liver; conditions: HCA-treated rats; cited from earlier work
[5] = solubility (product specification); format: physicochemical
[6] = stability of the product in solid state and in aqueous solution; format: physicochemical
Protocol: The stability of the product was evaluated in solid state and in aqueous solution in temperature and humidity conditions as specified below. The following parameters of the product were considered: physical appearance, specific rotation, HCA content by HPLC, lactone content by HPLC. […]
b) 37°±2° C. and 75%±2 relative humidity c) 45°±2° C. and 75%±2 relative humidity
2. In solution form (5% in water)

Molecule: O=C1C[C@@](O)(C(=O)O)[C@@H](C(=O)O)O1 [HCA in lactone form, hydroxy citric acid lactone]
- inhibiting the citrate lyase (citrate lyase; lactone form): inactive, or less active
- stability of the form [1]: stable

Molecule: O=C(O)CC(O)(C(=O)O)C(O)C(=O)O (centres unmarked) [HCA, hydroxycitric acid]
- Ki (citrate lyase; competitive inhibition, read-out: Ki, competitive inhibitor of citrate lyase): 150 nM
- affinity of the enzyme for HCA versus affinity for citric acid (citrate lyase; relative to citric acid): over a hundred times greater
- brain uptake [2]: negligible
- less weight gained than the controls ([3]; 80 day study period): 78%
- net reduction in food consumption ([3]; 80 day study period): 4%
- food consumption suppressed ([3]; HCA 1% or more of the diet): ≥ 10%
- rate of gluconeogenesis from lactate or alanine [4]: approximately doubled
- stability of the form [1]: not stable

Molecule: potassium hydroxy citrate [CITRIN®-K]
- Solubility ([5]; citrate): Soluble in water, acids and aqueous; also recorded: alcohols. Insoluble in solvents like
- Solubility ([5]; listed as potassium hydroxy citrate): water soluble
- stable under normal storage conditions ([6]; extrapolated from 90 day stress results): about 5 years
- stable under stress conditions ([6]; higher temperature and higher humidity, solid state and 5% in water): ≥ 90 days
